Laboratory results taken from patent publication US20040009233A1, “Shark meat extract” (priority 2000, published 2004).

Tested on: Angiogenesis
Assay: Inhibition of angiogenesis by fatty acid samples
Format: cell-based
Text: The phospholipid fatty acids usually include docosahexaenoic acid (DHA), arachidonic acid (AA), eicosapentaenoic acid (EPA), and others.

Structure (SMILES): CCCCC/C=C\C/C=C\C/C=C\C/C=C\CCCC(=O)O [Arachidonic, arachidonic acid]
- inhibition at 5 µg/mL (sample concentration 5 μg/ml): 84%

Structure (SMILES): CC/C=C\C/C=C\C/C=C\C/C=C\C/C=C\C/C=C\CCC(=O)O [Docosahexaenoic (DHA), docosahexaenoic acid]
- inhibition at 5 µg/mL (sample concentration 5 μg/ml): 88%

Structure (SMILES): CC/C=C\C/C=C\C/C=C\C/C=C\C/C=C\CCCCCC(=O)O [Docosapentaenoic]
- Inhibition of Angiogenesis (sample concentration 4 μg/ml): 71%

Structure (SMILES): CC/C=C\C/C=C\C/C=C\C/C=C\C/C=C\CCCC(=O)O [Eicosapentaenoic (EPA), eicosapentaenoic acid]
- inhibition at 3 µg/mL (sample concentration 3 μg/ml): 100%

Structure (SMILES): CCCCCCCC/C=C\CCCCCCCCCCCC(=O)O [Erucic]
- Inhibition of Angiogenesis (sample concentration 200 μg/ml): 30%

Structure (SMILES): CCCCCCC=CCCCCCCCCC(=O)O [Heptadecenoic]
- Inhibition of Angiogenesis (sample concentration 20 μg/ml): 83%

Structure (SMILES): CCCCC/C=C\C/C=C\CCCCCCCC(=O)O [Linoleic]
- Inhibition of Angiogenesis (sample concentration 5 μg/ml): 82%

Structure (SMILES): CCCC/C=C\CCCCCCCC(=O)O [Myristoleic]
- Inhibition of Angiogenesis (sample concentration 10 μg/ml): 58%

Structure (SMILES): CCCCCCCC/C=C\CCCCCCCCCCCCCC(=O)O [Nervonic]
- Inhibition of Angiogenesis (sample concentration 100 μg/ml): 0%

Structure (SMILES): CCCCCCCC/C=C\CCCCCCCC(=O)O [Oleic, oleic acid]
- inhibition at 100 µg/mL (read-out: Inhibition of Angiogenesis): 0%

Structure (SMILES): CCCCCC/C=C\CCCCCCCC(=O)O [Palmitoleic]
- Inhibition of Angiogenesis (sample concentration 5 μg/ml): 70%

Structure (SMILES): CCCCCCCCCCC/C=C\CCCCC(=O)O [Petroselenic]
- Inhibition of Angiogenesis (sample concentration 100 μg/ml): 58%

Structure (SMILES): CC/C=C\C/C=C\C/C=C\CCCCCCCC(=O)O [α-Linolenic]
- Inhibition of Angiogenesis (sample concentration 20 μg/ml): 66%
